Reference: paper PMC8799717, “Pharmacological targeting PIKfyve and tubulin as an effective treatment strategy for double-hit lymphoma” (Cell Death Discovery, 2022)

What was measured:
Assay in all cases: biochemical
Set-up in all cases: KINOMEscan active-site-directed competition binding panel, 468 kinases, percent of DMSO control at 1 uM
Conditions in all cases: KINOMEscan binding, percent of DMSO control; read-out: Ctrl%
FES = FES (Homo sapiens, UniProt P07332)
CAMKK1 = CAMKK1 (Homo sapiens, UniProt Q8N5S9)
MRCKA = molecular target: T1, MRCKA (Homo sapiens, UniProt Q5VT25)
T1 construct: gene CDC42BPA
T1 sequence (Q5VT25 whole entry): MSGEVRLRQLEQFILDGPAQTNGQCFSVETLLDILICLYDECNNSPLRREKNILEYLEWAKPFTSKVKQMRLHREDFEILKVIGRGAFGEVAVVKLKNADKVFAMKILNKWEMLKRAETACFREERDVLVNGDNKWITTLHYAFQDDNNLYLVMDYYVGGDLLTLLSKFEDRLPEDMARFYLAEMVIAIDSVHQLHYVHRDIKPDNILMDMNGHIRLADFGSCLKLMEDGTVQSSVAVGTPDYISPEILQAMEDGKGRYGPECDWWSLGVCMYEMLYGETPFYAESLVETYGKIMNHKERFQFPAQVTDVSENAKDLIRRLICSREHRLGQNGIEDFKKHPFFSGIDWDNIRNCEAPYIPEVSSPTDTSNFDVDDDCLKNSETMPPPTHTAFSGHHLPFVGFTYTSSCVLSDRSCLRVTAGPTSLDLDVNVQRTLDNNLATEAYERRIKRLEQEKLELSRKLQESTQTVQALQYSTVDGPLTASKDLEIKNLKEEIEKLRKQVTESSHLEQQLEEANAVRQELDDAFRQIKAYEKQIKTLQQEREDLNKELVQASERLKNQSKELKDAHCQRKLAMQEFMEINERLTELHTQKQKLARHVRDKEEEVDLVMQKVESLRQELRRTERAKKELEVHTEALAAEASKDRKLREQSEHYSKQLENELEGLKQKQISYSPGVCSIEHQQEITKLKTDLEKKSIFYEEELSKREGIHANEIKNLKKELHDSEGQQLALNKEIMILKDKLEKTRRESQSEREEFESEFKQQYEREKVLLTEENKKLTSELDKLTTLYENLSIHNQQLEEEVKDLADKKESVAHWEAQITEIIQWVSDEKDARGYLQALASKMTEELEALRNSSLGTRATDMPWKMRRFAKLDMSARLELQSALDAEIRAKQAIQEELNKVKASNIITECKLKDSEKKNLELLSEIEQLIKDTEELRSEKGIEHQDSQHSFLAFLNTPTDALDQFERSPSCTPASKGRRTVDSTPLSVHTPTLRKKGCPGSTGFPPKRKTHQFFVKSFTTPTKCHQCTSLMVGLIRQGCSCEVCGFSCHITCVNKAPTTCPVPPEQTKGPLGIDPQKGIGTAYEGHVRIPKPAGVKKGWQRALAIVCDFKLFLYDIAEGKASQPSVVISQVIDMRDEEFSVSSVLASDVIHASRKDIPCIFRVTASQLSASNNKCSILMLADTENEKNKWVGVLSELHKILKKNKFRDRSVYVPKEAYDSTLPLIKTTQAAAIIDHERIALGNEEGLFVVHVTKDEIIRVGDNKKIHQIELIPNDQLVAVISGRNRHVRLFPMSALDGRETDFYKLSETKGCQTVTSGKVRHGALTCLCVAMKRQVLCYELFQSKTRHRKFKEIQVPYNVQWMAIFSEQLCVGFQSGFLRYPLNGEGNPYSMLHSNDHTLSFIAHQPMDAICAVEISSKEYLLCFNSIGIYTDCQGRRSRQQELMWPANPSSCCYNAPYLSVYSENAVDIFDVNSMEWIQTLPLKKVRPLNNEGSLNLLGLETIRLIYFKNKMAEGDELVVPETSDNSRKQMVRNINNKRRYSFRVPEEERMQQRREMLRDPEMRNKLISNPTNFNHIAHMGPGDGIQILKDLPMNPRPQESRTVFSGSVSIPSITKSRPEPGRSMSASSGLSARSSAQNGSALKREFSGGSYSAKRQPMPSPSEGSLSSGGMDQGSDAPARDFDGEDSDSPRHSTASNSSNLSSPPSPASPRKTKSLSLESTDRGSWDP

LYN = LYN (Homo sapiens, UniProt P07948)
TIE1 = TIE1 (Homo sapiens, UniProt P35590)
ABL1-phosphorylated = molecular target: T2, ABL1-phosphorylated (Homo sapiens, UniProt P00519)
T2 construct: phosphorylated

LATS2 = LATS2 (Homo sapiens, UniProt Q9NRM7)
LATS2, sequence (Q9NRM7 whole entry): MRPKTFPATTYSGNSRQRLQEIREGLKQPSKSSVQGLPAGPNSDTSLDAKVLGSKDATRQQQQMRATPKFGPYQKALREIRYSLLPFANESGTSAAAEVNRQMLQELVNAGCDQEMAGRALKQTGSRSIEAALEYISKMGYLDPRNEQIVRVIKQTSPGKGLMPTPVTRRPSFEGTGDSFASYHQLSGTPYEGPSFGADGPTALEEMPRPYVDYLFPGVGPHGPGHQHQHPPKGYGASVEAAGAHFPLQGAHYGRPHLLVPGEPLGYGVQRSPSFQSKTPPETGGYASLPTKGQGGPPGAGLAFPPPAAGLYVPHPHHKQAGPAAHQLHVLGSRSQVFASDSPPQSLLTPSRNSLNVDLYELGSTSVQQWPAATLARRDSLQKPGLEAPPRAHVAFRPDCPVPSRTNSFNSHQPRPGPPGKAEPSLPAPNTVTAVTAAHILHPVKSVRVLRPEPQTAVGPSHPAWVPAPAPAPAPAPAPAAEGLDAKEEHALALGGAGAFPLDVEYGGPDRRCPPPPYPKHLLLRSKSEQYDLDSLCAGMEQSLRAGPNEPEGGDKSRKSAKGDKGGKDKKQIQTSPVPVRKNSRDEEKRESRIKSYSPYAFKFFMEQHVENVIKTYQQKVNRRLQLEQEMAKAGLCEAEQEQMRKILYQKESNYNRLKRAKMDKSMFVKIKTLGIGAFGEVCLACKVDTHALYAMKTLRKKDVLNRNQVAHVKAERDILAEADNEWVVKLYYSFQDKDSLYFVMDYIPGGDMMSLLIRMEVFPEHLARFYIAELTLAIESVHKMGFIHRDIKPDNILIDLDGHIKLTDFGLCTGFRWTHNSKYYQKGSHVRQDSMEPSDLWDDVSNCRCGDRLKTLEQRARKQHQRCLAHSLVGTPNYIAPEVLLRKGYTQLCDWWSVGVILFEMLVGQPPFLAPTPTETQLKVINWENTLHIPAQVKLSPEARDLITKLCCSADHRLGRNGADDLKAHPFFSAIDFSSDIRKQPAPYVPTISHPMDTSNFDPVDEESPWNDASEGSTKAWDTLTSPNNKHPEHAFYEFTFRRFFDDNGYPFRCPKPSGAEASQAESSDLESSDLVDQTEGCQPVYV

IRAK3 = IRAK3 (Homo sapiens, UniProt Q9Y616)
IRAK3, sequence (Q9Y616 whole entry): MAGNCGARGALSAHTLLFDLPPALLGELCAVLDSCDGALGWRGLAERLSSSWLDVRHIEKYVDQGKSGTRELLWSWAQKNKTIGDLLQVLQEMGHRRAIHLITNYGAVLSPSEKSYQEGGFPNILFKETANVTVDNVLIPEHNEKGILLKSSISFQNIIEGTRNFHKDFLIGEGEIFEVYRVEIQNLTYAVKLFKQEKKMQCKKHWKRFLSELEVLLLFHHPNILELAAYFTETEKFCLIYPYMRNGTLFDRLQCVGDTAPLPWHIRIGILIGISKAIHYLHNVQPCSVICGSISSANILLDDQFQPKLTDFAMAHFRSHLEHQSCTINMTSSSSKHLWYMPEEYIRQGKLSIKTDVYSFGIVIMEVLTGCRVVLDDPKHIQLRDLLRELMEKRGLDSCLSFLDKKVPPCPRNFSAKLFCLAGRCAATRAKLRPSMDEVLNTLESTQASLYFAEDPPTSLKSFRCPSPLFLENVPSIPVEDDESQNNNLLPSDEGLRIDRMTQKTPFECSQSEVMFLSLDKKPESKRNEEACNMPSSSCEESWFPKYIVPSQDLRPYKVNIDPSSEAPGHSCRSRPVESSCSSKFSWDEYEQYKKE

PLK1 = PLK1 (Homo sapiens, UniProt P53350)
PLK1, sequence (P53350 whole entry): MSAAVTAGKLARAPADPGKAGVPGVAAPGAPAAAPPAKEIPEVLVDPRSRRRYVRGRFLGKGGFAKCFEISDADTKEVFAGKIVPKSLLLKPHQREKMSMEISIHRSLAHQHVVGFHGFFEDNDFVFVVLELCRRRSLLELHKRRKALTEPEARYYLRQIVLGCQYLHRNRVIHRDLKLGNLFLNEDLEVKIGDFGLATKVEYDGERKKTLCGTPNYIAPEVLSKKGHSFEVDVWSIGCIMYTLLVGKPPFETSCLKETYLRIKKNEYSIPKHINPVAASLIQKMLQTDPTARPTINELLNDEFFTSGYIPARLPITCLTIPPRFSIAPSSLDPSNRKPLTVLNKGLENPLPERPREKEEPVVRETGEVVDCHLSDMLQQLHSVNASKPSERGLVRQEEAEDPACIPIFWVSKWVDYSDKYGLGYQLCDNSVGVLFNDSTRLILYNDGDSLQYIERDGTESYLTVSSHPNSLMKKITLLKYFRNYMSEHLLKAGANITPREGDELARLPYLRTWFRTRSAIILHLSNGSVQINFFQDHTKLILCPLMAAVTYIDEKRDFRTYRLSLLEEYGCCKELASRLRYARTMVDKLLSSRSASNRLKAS

CDK7 = CDK7 (Homo sapiens, UniProt P50613)
CDK7, sequence (P50613 whole entry): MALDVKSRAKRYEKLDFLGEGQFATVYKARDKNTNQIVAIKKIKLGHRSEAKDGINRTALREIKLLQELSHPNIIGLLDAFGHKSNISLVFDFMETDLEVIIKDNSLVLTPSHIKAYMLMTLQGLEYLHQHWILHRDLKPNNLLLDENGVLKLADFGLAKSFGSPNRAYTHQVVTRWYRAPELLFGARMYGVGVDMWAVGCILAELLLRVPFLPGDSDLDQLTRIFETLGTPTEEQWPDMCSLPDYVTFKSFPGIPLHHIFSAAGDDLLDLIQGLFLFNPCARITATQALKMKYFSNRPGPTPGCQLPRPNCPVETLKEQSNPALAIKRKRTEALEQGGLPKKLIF

CSNK1E = CSNK1E (Homo sapiens, UniProt P49674)
SYK = SYK (Homo sapiens, UniProt P43405)
LRRK2(G2019S) = LRRK2(G2019S) (Homo sapiens, UniProt Q5S007, G2019S)
DYRK1A = DYRK1A (Homo sapiens, UniProt Q13627)
MKK7 = molecular target: T3, MKK7 (Homo sapiens, UniProt O14733)
T3 construct: gene MAP2K7

TGFBR1 = TGFBR1 (Homo sapiens, UniProt P36897)
TGFBR1, sequence (P36897 whole entry): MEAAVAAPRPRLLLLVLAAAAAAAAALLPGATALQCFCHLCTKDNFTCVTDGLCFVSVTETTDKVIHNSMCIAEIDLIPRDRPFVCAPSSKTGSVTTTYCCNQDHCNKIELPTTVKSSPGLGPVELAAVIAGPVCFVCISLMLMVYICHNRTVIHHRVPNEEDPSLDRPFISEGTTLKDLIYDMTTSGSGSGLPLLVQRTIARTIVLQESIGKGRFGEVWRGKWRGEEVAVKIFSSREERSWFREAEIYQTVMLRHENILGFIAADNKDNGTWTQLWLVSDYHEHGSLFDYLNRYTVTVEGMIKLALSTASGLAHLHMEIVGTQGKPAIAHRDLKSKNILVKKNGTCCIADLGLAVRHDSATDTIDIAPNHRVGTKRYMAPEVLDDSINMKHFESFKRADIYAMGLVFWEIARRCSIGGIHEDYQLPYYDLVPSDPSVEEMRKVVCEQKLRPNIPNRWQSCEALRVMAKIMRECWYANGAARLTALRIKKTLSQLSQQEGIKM

CSNK1D = CSNK1D (Homo sapiens, UniProt P48730)
KIT(D816V) = KIT(D816V) (Homo sapiens, UniProt P10721, D816V)
ULK3 = ULK3 (Homo sapiens, UniProt Q6PHR2)
CHEK2 = CHEK2 (Homo sapiens, UniProt O96017)
CDK5 = CDK5 (Homo sapiens, UniProt Q00535)
MEK1 = molecular target: T4, MEK1 (Homo sapiens, UniProt Q02750)
T4 construct: gene MAP2K1

STK35 = STK35 (Homo sapiens, UniProt Q8TDR2)
WNK3 = WNK3 (Homo sapiens, UniProt Q9BYP7)

In the case of `Cc1ccc(NC(=O)c2cccc(C(F)(F)F)c2)cc1Nc1cc(-c2cccnc2)nc2[nH]ccc12` [HZX-02-059], the remaining binding at 1 µM (FES) is reported as 100%, the remaining binding at 1 µM (CAMKK1) is reported as 97% and the remaining binding at 1 µM (MRCKA) is reported as 88%. The remaining binding at 1 µM (LYN) was 17%, the remaining binding at 1 µM (TIE1) was 100% and the remaining binding at 1 µM (ABL1-phosphorylated) was 55%. The remaining binding at 1 µM (LATS2) was 67%, the remaining binding at 1 µM (IRAK3) was 92% and the remaining binding at 1 µM (PLK1) was 100%. For the same compound, the remaining binding at 1 µM (CDK7) was 69%, the remaining binding at 1 µM (CSNK1E) was 97% and the remaining binding at 1 µM (SYK) was 100%. It also gave a remaining binding at 1 µM (LRRK2(G2019S)) of 92%, a remaining binding at 1 µM (DYRK1A) of 85% and a remaining binding at 1 µM (MKK7) of 95%. The remaining binding at 1 µM (TGFBR1) was 76%, the remaining binding at 1 µM (CSNK1D) was 96% and the remaining binding at 1 µM (KIT(D816V)) was 93%. The remaining binding at 1 µM (ULK3) was 91%, the remaining binding at 1 µM (CHEK2) was 61% and the remaining binding at 1 µM (CDK5) was 100%. For the same compound, the remaining binding at 1 µM (MEK1) was 100%, the remaining binding at 1 µM (STK35) was 80% and the remaining binding at 1 µM (WNK3) was 100%.
